Source: patent US20220330549A1, “USE OF N-BENZYLBENZAMIDE-BASED COMPOUND AS HERBICIDE” (Northwest A&F University, priority 2020, published 2022)

Key:
Format in all cases: in vivo
Amaranthus retroflexus [1] = assay: Field test for weed control in a corn field; conditions: 150 g a.i./ha, 30 days after treatment
Procedure, shortened: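 Post-emergence control of Amaranthus retroflexus was assessed in corn plots using the GB/T 17980.42-2000 method. Emulsifiable concentrates (10%) in water were applied by spraying at the 2- to 5-leaf crop stage on 20 m^2 plots, four replicates each, alongside a mesotrione 25% oil dispersion reference. Herbicidal activity was scored on 1-9 levels by weed amount relative to blank control areas.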

Solanum nigrum = assay: Field test for weed control in a corn field; conditions: 150 g a.i./ha, 30 days after treatment
Procedure, shortened: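 In a corn field trial based on GB/T 17980.42-2000, 10% emulsifiable concentrates diluted in water were sprayed at 150 g(a.i.)/ha at the 2 to 5 leaf stage of corn. Each treatment used 20 m^2 plots and was repeated 4 times, with 25% mesotrione oil dispersion as the reference agent. Solanum nigrum damage was scored on a 1-9 scale against blank control plots.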

Acalypha australis = assay: Field test for weed control in a corn field; conditions: 150 g a.i./ha, after treatment
Procedure, shortened: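 Herbicidal activity against weeds was assessed in corn plots by the GB/T 17980.42-2000 method. Corn at the 2–5 leaf stage received water sprays of 10% emulsifiable concentrates at 150 g(a.i.)/ha, four repeats per treatment over 20 m^2. A 25% mesotrione oil dispersion was the reference. Damage symptoms and severity were rated on levels 1-9 relative to weeds in the blank control area.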

Chenopodium album = assay: Field test for weed control in a corn field; conditions: 150 g a.i./ha, after treatment
Procedure, shortened: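 Field weed-control testing in corn, run per GB/T 17980.42-2000, scored Chenopodium album on a 1-9 level scale, where each level matches a percentage range of weed remaining relative to the blank control area. Sprays of 10% emulsifiable concentrates in water delivered 150 g(a.i.)/ha at the corn 2-leaf to 5-leaf stage on 20 m^2 plots, four replicates each. Mesotrione 25% oil dispersion served as reference.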

Barnyard grass [2] = assay: Field test for weed control in a corn field; conditions: 150 g a.i./ha, 30 days after treatment
Procedure, shortened: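 Herbicidal activity against barnyard grass was assessed in corn field plots of 20 m^2, with four replicates per treatment. Compounds were applied as water-diluted 10% emulsifiable concentrates at 150 g(a.i.)/ha at the 2-5 leaf corn stage, with 25% mesotrione oil dispersion as the reference agent. Damage was scored on a 1-9 scale against untreated blank plots.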

Portulaca oleracea = assay: Field test for weed control in a corn field; conditions: 150 g a.i./ha, after treatment
Procedure, shortened: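 Post-emergence weed control was evaluated in a corn field by the GB/T 17980.42-2000 method. Emulsifiable concentrates (10%) in water were applied as sprays at 150 g(a.i.)/ha at the 2-5 leaf corn stage, in four replicate 20 m^2 plots. A 25% mesotrione oil dispersion served as control agent. Effects were graded 1-9 relative to weed remaining in blank control areas.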

nutgrass flatsedge = assay: Field test for weed control in a corn field; conditions: 150 g a.i./ha, after treatment
Procedure, shortened: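 Herbicidal effect on nutgrass flatsedge was measured in a field planted with corn, using the GB/T 17980.42-2000 method. Emulsifiable concentrates (10%) in water were sprayed at 150 g(a.i.)/ha during the 2-leaf to 5-leaf corn stage, on 20 m^2 plots repeated 4 times. 25% mesotrione oil dispersion was the control agent. Activity was scored from 1 to 9 by weed remaining relative to blank control plots.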

goosegrass = assay: Field test for weed control in a corn field; conditions: 150 g a.i./ha, after treatment
Procedure, shortened: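 In this field trial in corn, run per GB/T 17980.42-2000, test agents prepared as 10% emulsifiable concentrates were applied in water as sprays at 150 g(a.i.)/ha at the 2- to 5-leaf corn stage. Each treatment covered 20 m^2 and was repeated 4 times. Goosegrass control was scored 1-9 relative to weed remaining in blank control areas.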

green bristlegrass [3] = assay: Field test for weed control in a corn field; conditions: 150 g a.i./ha, after treatment
Procedure, shortened: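 Herbicidal activity against green bristlegrass was assessed in corn field plots of 20 m^2 per GB/T 17980.42-2000. Test agents, formulated as 10% emulsifiable concentrates, were applied in water at 150 g(a.i.)/ha at the corn 2 leaves to 5 leaves stage, repeated 4 times. A 25% mesotrione oil dispersion served as the control agent, and weed damage was rated on levels 1-9.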

Digitaria sanguinalis [4] = assay: Field test for weed control in a corn field; conditions: 150 g a.i./ha, after treatment
Procedure, shortened: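 Field trial in a corn field following GB/T 17980.42-2000. Test compounds were formulated as 10% emulsifiable concentrates, diluted in water and sprayed post-emergence at 150 g(a.i.)/ha when corn had 2 to 5 leaves, with 4 replicates on 20 m^2 plots. Control of Digitaria sanguinalis was scored on a 1-9 scale based on weed damage relative to the untreated blank area.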

Convolvulus arvensis = assay: Field test for weed control in a corn field; conditions: 150 g a.i./ha, after treatment
Procedure, shortened: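 Post-emergence herbicidal activity on Convolvulus arvensis was scored in a corn field on a 1-9 scale, based on symptoms and damage severity. Each level corresponds to the weed remaining as a percentage of the blank control area. Sprays of 10% emulsifiable concentrate at 150 g(a.i.)/ha went on at the corn 2–5 leaf stage, with four replicates of 20 m^2 per treatment.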

Humulus scandens [5] = assay: Herbicidal activity test for indoor pre-emergence soil treatment; conditions: 150 g a.i./ha, visual inspection 21 days after treatment
Procedure, shortened: (§1)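 Pre-emergence test following NY/T 1155.3-2006: weed seeds were sown in moistened neutral sandy loam (≤2% organic matter) and covered with 0.5–2.0 cm of soil. After 24 h, the soil was sprayed with a 10% EC diluted in water at 150 g(a.i.)/ha. Damage was scored visually on a 1–9 scale at 21 days.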

Piemarker [6] = assay: as above; design: key: level 1-9; higher = more weed remaining vs blank control; conditions: 150 g a.i./ha, visual inspection 21 days after treatment
Procedure, shortened: as §1

Barnyard grass [7] = assay: as above; design: key: level 1-9; higher = more weed remaining vs blank control; conditions: 150 g a.i./ha, visual inspection 21 days after treatment
Procedure, shortened: as §1

green bristlegrass [8] = assay: as above; design: key: level 1-9; higher = more weed remaining vs blank control; conditions: 150 g a.i./ha, visual inspection 21 days after treatment
Procedure, shortened: as §1

Gramineae = assay: Post-emergence herbicidal activity test in a paddy field; design: key: level scale; higher level = more weed left vs blank control; conditions: 150 g a.i./ha (penoxsulam control 250 g(a.i.)/h)
Procedure, shortened: (§2)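 Efficacy was visually estimated 15 and 30 days after spraying, grading weed coverage relative to an untreated neighbouring plot (level 2 = 0 to 2.5%, level 9 = 67.6 to 100%). Treatments were 150 g(a.i.)/ha from 10% emulsifiable concentrates applied at the 4-5 leaf rice stage, four repeats of 50 m^2 each.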

Cyperaceae = assay: as above; design: key: level scale; higher level = more weed left vs blank control; conditions: 150 g a.i./ha (penoxsulam control 250 g(a.i.)/h)
Procedure, shortened: as §2

Broadleaf weed = assay: as above; design: key: level scale; higher level = more weed left vs blank control; conditions: 150 g a.i./ha (penoxsulam control 250 g(a.i.)/h)
Procedure, shortened: as §2

Amaranthus retroflexus [9] = assay: Herbicidal activity test for indoor pre-emergence soil treatment; design: key: 1-9 levels; higher = more weed remaining vs blank control; conditions: 150 g a.i./ha, visual inspection 21 days after treatment
Procedure, shortened: as §1

Digitaria sanguinalis [10] = assay: as above; design: key: 1-9 levels; higher = more weed remaining vs blank control; conditions: 150 g a.i./ha, visual inspection 21 days after treatment
Procedure, shortened: as §1

Amaranthus retroflexus [11] = assay: Herbicidal activity test for indoor post-emergence spraying on stems and leaves; design: key: grade level by weed remaining vs blank control, e.g. 5 = 10.1-15%; conditions: 150 g a.i./ha, visual inspection 21 days after treatment
Procedure, shortened: (§3)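 Greenhouse-grown weeds, post-emergence foliar spray (NY/T 1155.4-2006 method); visual scoring at 21 d post-treatment as levels vs. untreated blank control (e.g., level 5 = 10.1–15%, level 8 = 35.1–67.5% of control weed).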

Piemarker [12] = assay: as above; design: key: grade level by weed remaining vs blank control, e.g. 5 = 10.1-15%; conditions: 150 g a.i./ha, visual inspection 21 days after treatment
Procedure, shortened: as §3

Barnyard grass [13] = assay: as above; design: key: grade level by weed remaining vs blank control, e.g. 5 = 10.1-15%; conditions: 150 g a.i./ha, visual inspection 21 days after treatment
Procedure, shortened: as §3

green bristlegrass [14] = assay: as above; design: key: grade level by weed remaining vs blank control, e.g. 5 = 10.1-15%; conditions: 150 g a.i./ha, visual inspection 21 days after treatment
Procedure, shortened: as §3

Digitaria sanguinalis [15] = assay: as above; design: key: grade level by weed remaining vs blank control, e.g. 5 = 10.1-15%; conditions: 150 g a.i./ha, visual inspection 21 days after treatment
Procedure, shortened: as §3

Humulus scandens [16] = assay: as above; design: key: grade level by weed remaining vs blank control, e.g. 5 = 10.1-15%; conditions: 150 g a.i./ha, visual inspection 21 days after treatment
Procedure, shortened: as §3

COc1ccccc1C(=O)NCc1cc(F)cc(Cl)c1 [Compound A07, N-(3-chloro-5-fluorobenzyl)-2-methoxybenzamide]
Post-emergence weed control effect, Amaranthus retroflexus (Amaranthus retroflexus [1]): 1 | Post-emergence weed control effect, Solanum nigrum (Solanum nigrum): 2 (equivalent to 0 to 2.5% of the weed in the blank control area) | Post-emergence weed control effect, Acalypha australis (Acalypha australis): 2 (equivalent to 0 to 2.5% of the weed in the blank control area) | Post-emergence weed control effect, Chenopodium album (Chenopodium album): 1 | Post-emergence weed control effect, Barnyard grass (Barnyard grass [2]): 2 (equivalent to 0 to 2.5% of the weed in the blank control area) | Post-emergence weed control effect, Portulaca oleracea (Portulaca oleracea): 1 | Post-emergence weed control effect, Nutgrass flatsedge (nutgrass flatsedge): 2 (equivalent to 0 to 2.5% of the weed in the blank control area) | Post-emergence weed control effect, Goose grass (goosegrass): 2 (equivalent to 0 to 2.5% of the weed in the blank control area) | Post-emergence weed control effect, Green bristlegrass (green bristlegrass [3]): 2 (equivalent to 0 to 2.5% of the weed in the blank control area) | Post-emergence weed control effect, Digitaria sanguinalis (Digitaria sanguinalis [4]): 2 (equivalent to 0 to 2.5% of the weed in the blank control area) | Post-emergence weed control effect, Convolvulus arvensis (Convolvulus arvensis): 1 | Herbicidal Activity Humulus scandens (Humulus scandens [5]): 3 (equivalent to 2.6 to 5% of the weed in the blank control area) | Herbicidal Activity Piemarker (Piemarker [6]): 1 | Herbicidal Activity Barnyard grass (Barnyard grass [7]): 1 | Herbicidal Activity Green bristlegrass (green bristlegrass [8]): 2 (equivalent to 0 to 2.5% of the weed in the blank control area) | Herbicidal activity 15 days after treatment Gramineae (Gramineae; 15 days after treatment): 2 (equivalent to 0 to 2.5% of the weed in the blank control area) | Herbicidal activity 30 days after treatment Gramineae (Gramineae; 30 days after treatment): 2 (equivalent to 0 to 2.5% of the weed in the blank control area) | Herbicidal activity 15 days after treatment Cyperaceae (Cyperaceae; 15 days after treatment): 1 | Herbicidal activity 30 days after treatment Cyperaceae (Cyperaceae; 30 days after treatment): 2 (equivalent to 0 to 2.5% of the weed in the blank control area) | Herbicidal activity 15 days after treatment Broadleaf weed (Broadleaf weed; 15 days after treatment): 2 (equivalent to 0 to 2.5% of the weed in the blank control area) | Herbicidal activity 30 days after treatment Broadleaf weed (Broadleaf weed; 30 days after treatment): 1 | Herbicidal Activity Amaranthus retroflexus (Amaranthus retroflexus [9]): 1 | Herbicidal Activity Digitaria sanguinalis (Digitaria sanguinalis [10]): 1 | Herbicidal Activity Amaranthus retroflexus (Amaranthus retroflexus [11]): 1 | Herbicidal Activity Piemarker (Piemarker [12]): 1 | Herbicidal Activity Barnyard grass (Barnyard grass [13]): 1 | Herbicidal Activity Green bristlegrass (green bristlegrass [14]): 2 (equivalent to 0 to 2.5% of the weed in the blank control area) | Herbicidal Activity Digitaria sanguinalis (Digitaria sanguinalis [15]): 1 | Herbicidal Activity Humulus scandens (Humulus scandens [16]): 1
